Patent US10072026B2, “Crystalline form of 3-((1R,3s,5S)-3-((7-((5-methyl-1H-pyrazol-3-yl)amino)-1,6-naphthyridin-5-yl)amino)-8-azabicyclo[3.2.1]octan-8-yl)propanenitrile” (priority 2015, dated 2018)

Assays:
JAK1 = JAK1 (Homo sapiens (Human), UniProt P23458); assay: LanthaScreen JAK biochemical assay (JAK1); conditions: for Ki: read-out: JAK 1 (pKi) (converted)
JAK2 = JAK2 (Homo sapiens (Human), UniProt O60674); assay: LanthaScreen JAK biochemical assay (JAK2); conditions: for Ki: read-out: JAK 2 (pKi) (converted)
JAK2, sequence (O60674 whole entry): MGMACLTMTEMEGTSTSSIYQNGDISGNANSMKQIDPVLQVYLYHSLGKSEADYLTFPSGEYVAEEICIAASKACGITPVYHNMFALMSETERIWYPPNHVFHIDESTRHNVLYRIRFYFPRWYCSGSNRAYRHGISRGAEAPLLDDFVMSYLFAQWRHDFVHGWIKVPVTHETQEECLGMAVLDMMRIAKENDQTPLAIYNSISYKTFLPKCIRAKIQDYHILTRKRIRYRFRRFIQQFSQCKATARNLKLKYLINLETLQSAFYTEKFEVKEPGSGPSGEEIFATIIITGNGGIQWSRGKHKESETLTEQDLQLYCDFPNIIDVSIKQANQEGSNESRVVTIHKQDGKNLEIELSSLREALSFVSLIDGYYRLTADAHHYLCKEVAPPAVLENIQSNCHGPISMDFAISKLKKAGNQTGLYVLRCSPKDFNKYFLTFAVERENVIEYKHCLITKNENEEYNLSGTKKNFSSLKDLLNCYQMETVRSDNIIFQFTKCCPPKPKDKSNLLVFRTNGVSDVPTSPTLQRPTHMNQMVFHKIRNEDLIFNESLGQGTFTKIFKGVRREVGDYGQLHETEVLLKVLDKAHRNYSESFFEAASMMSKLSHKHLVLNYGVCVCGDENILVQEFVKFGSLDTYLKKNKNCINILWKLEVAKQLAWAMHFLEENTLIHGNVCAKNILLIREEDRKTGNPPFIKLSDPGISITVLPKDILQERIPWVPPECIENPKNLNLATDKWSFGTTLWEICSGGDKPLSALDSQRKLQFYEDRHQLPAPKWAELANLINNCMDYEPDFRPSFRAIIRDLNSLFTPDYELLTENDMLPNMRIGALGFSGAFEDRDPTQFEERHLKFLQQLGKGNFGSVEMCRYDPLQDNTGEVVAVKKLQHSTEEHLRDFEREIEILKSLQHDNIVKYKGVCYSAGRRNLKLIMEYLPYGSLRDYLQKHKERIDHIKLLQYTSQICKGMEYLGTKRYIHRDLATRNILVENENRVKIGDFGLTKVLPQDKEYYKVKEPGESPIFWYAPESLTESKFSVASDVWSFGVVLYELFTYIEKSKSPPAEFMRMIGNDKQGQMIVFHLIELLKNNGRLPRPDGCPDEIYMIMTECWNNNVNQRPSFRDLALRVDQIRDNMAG

[1] = test system: IL-4 induced STAT6 phosphorylation in THP-1 human monocytic cells; assay: Cellular JAK potency assay, THP-1
[2] = IL-4 induced STAT6 phosphorylation, THP-1 cells
[3] = THP-1 cells, IL-4 induced STAT6 phosphorylation

JAK1, sequence (P23458 whole entry): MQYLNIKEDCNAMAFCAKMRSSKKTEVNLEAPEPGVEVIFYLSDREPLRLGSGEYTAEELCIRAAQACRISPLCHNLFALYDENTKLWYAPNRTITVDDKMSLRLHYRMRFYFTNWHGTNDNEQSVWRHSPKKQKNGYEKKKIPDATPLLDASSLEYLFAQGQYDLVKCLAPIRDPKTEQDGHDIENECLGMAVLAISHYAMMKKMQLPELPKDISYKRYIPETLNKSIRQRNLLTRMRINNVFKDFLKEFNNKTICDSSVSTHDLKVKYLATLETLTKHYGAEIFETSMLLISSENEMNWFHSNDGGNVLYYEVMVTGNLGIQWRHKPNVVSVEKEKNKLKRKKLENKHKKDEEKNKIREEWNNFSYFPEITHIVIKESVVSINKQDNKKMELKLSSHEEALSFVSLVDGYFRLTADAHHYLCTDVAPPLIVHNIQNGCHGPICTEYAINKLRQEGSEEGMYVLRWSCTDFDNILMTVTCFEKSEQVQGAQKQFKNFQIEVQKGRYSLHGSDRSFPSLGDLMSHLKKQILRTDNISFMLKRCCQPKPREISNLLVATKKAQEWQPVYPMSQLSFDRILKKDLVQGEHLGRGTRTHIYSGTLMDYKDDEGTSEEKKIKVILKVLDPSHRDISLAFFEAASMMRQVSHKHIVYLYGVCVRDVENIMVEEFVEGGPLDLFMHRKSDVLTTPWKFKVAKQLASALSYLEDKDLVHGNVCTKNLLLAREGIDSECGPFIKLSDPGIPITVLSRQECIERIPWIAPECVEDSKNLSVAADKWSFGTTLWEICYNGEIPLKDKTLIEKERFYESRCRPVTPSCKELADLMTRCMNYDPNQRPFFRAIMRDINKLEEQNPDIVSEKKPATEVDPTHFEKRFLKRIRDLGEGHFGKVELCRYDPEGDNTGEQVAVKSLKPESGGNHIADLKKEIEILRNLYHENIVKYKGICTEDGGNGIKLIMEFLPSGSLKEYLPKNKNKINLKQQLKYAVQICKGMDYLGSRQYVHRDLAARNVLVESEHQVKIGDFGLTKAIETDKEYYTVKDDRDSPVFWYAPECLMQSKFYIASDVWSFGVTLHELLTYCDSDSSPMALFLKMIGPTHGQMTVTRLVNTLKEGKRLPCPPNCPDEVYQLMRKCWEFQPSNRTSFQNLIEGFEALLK

Row | SMILES | JAK 1 (pKi) (JAK1) | JAK 2 (pKi) (JAK2) | THP-1 IL4 pIC50 [1, 2] | also measured
1 | Cc1cc(Nc2cc3ncccc3c(N[C@@H]3C[C@H]4CC[C@@H](C3)N4CC(=O)OC(C)C)n2)n[nH]1 [Example 1-4] | B (B represents a pKi value between 9 and 10 (Ki between 1 nM and 0.1 nM)) | B (B represents a pKi value between 9 and 10 (Ki between 1 nM and 0.1 nM)) | B (B represents a pEC50 value between 6.7 and 7.5 (EC50 between 200 nM and 32 nM)) | –
2 | Cc1cc(Nc2cc3ncccc3c(N[C@@H]3C[C@H]4CC[C@@H](C3)N4CC(=O)OC(C)(C)C)n2)n[nH]1 [Example 1-5] | B (B represents a pKi value between 9 and 10 (Ki between 1 nM and 0.1 nM)) | B (B represents a pKi value between 9 and 10 (Ki between 1 nM and 0.1 nM)) | B (B represents a pEC50 value between 6.7 and 7.5 (EC50 between 200 nM and 32 nM)) | –
3 | CNC(=O)CN1[C@@H]2CC[C@H]1C[C@H](Nc1nc(Nc3cc(C)[nH]n3)cc3ncccc13)C2 [Example 1-7] | B (B represents a pKi value between 9 and 10 (Ki between 1 nM and 0.1 nM)) | B (B represents a pKi value between 9 and 10 (Ki between 1 nM and 0.1 nM)) | C (C represents a pEC50 value<6.7 (EC50>200 nM)) | –
4 | Cc1cc(Nc2cc3ncccc3c(N[C@@H]3C[C@H]4CC[C@@H](C3)N4CCC(F)(F)F)n2)n[nH]1 [Example 1-10] | B (B represents a pKi value between 9 and 10 (Ki between 1 nM and 0.1 nM)) | B (B represents a pKi value between 9 and 10 (Ki between 1 nM and 0.1 nM)) | C (C represents a pEC50 value<6.7 (EC50>200 nM)) | –
5 | Cc1cc(Nc2cc3ncccc3c(N[C@@H]3C[C@H]4CC[C@@H](C3)N4Cc3cccnc3)n2)n[nH]1 [Example 1-16] | B (B represents a pKi value between 9 and 10 (Ki between 1 nM and 0.1 nM)) | B (B represents a pKi value between 9 and 10 (Ki between 1 nM and 0.1 nM)) | B (B represents a pEC50 value between 6.7 and 7.5 (EC50 between 200 nM and 32 nM)) | –
6 | Cc1cc(Nc2cc3ncccc3c(N[C@@H]3C[C@H]4CC[C@@H](C3)N4CC3CCOCC3)n2)n[nH]1 [Example 1-20] | B (B represents a pKi value between 9 and 10 (Ki between 1 nM and 0.1 nM)) | B (B represents a pKi value between 9 and 10 (Ki between 1 nM and 0.1 nM)) | B (B represents a pEC50 value between 6.7 and 7.5 (EC50 between 200 nM and 32 nM)) | –
7 | Cc1cc(Nc2cc3ncccc3c(N[C@@H]3C[C@H]4CC[C@@H](C3)N4C3CCOC3=O)n2)n[nH]1 (some centres unmarked) [Example 1-26] | – | – | – | Ki (JAK1): 0.1 to 1 nM; Ki (JAK2): 0.1 to 1 nM
8 | Cc1cc(Nc2cc3ncccc3c(N[C@@H]3C[C@H]4CC[C@@H](C3)N4C3CCOC3=O)n2)n[nH]1 (some centres unmarked) [Example 1-27] | B (B represents a pKi value between 9 and 10 (Ki between 1 nM and 0.1 nM)) | B (B represents a pKi value between 9 and 10 (Ki between 1 nM and 0.1 nM)) | – | –
9 | COC(=O)CN1[C@@H]2CCC[C@H]1C[C@H](Nc1nc(Nc3cc(C)[nH]n3)cc3ncccc13)C2 [Example 1-32] | – | A (A represents a pKi value≥10 (Ki≤0.1 nM)) | C (C represents a pEC50 value<6.7 (EC50>200 nM)) | –
10 | Cc1cc(Nc2cc3ncccc3c(N[C@@H]3C[C@H]4CCC[C@@H](C3)N4CC(=O)OC(C)(C)C)n2)n[nH]1 [Example 1-36] | B (B represents a pKi value between 9 and 10 (Ki between 1 nM and 0.1 nM)) | B (B represents a pKi value between 9 and 10 (Ki between 1 nM and 0.1 nM)) | B (B represents a pEC50 value between 6.7 and 7.5 (EC50 between 200 nM and 32 nM)) | –
11 | Cc1cc(Nc2cc3ncccc3c(N[C@@H]3C[C@H]4CCC[C@@H](C3)N4Cc3ccncc3)n2)n[nH]1 [Example 1-48] | A (A represents a pKi value≥10 (Ki≤0.1 nM)) | A (A represents a pKi value≥10 (Ki≤0.1 nM)) | B (B represents a pEC50 value between 6.7 and 7.5 (EC50 between 200 nM and 32 nM)) | –
12 | Cc1cc(Nc2cc3ncccc3c(N[C@@H]3C[C@H]4CCC[C@@H](C3)N4C3CCCOC3=O)n2)n[nH]1 (some centres unmarked) [Example 1-53] | B (B represents a pKi value between 9 and 10 (Ki between 1 nM and 0.1 nM)) | B (B represents a pKi value between 9 and 10 (Ki between 1 nM and 0.1 nM)) | B (B represents a pEC50 value between 6.7 and 7.5 (EC50 between 200 nM and 32 nM)) | –
13 | Cc1cc(Nc2cc3ncccc3c(N[C@@H]3C[C@H]4CCC[C@@H](C3)N4CC3COC(=O)O3)n2)n[nH]1 (some centres unmarked) [Example 1-58] | – | A (A represents a pKi value≥10 (Ki≤0.1 nM)) | B (B represents a pEC50 value between 6.7 and 7.5 (EC50 between 200 nM and 32 nM)) | –
14 | COC(=O)C1(C(=O)N2[C@@H]3CCC[C@H]2C[C@H](Nc2nc(Nc4cc(C)[nH]n4)cc4ncccc24)C3)CC1 [Example 2-21] | – | B (B represents a pKi value between 9 and 10 (Ki between 1 nM and 0.1 nM)) | B (B represents a pEC50 value between 6.7 and 7.5 (EC50 between 200 nM and 32 nM)) | –
15 | Cc1cc(Nc2cc3ncccc3c(N[C@@H]3C[C@H]4CCC[C@@H](C3)N4C(=O)C3(C)CCCC3)n2)n[nH]1 [Example 2-23] | – | B (B represents a pKi value between 9 and 10 (Ki between 1 nM and 0.1 nM)) | B (B represents a pEC50 value between 6.7 and 7.5 (EC50 between 200 nM and 32 nM)) | –
16 | Cc1cc(Nc2cc3nc(CN4CCOCC4)ccc3c(N[C@@H]3C[C@H]4CC[C@@H](C3)N4CCC#N)n2)n[nH]1 [Example 5-18] | – | A (A represents a pKi value≥10 (Ki≤0.1 nM)) | B (B represents a pEC50 value between 6.7 and 7.5 (EC50 between 200 nM and 32 nM)) | –
17 | Cc1cc(Nc2cc3nc(CN4CCOCC4)ccc3c(N[C@@H]3C[C@H]4CCC[C@@H](C3)N4CC(F)(F)F)n2)n[nH]1 [Example 5-29] | – | A (A represents a pKi value≥10 (Ki≤0.1 nM)) | B (B represents a pEC50 value between 6.7 and 7.5 (EC50 between 200 nM and 32 nM)) | –
18 | Cc1cnc2cc(Nc3cc(C)[nH]n3)nc(N[C@@H]3C[C@H]4CCC[C@@H](C3)N4C(=O)OCC(C)C)c2c1 [Example 6-7] | – | B (B represents a pKi value between 9 and 10 (Ki between 1 nM and 0.1 nM)) | – | THP-1 IL4 pIC50 [1, 3]: B (B represents a pEC50 value between 6.7 and 7.5 (EC50 between 200 nM and 32 nM))
19 | COC(=O)c1cnc2cc(Nc3cc(C)[nH]n3)nc(N[C@@H]3C[C@H]4CC[C@@H](C3)N4C(=O)C(F)F)c2c1 [Example 6-37] | – | – | – | Ki (JAK1): 0.1 to 1 nM; Ki (JAK2): 0.1 to 1 nM
20 | COc1ccnc2cc(Nc3cc(C)[nH]n3)nc(N[C@@H]3C[C@H]4CC[C@@H](C3)N4C(=O)OCC(C)C)c12 [Example 7-1] | B (B represents a pKi value between 9 and 10 (Ki between 1 nM and 0.1 nM)) | – | – | THP-1 IL4 pIC50 [1, 3]: B (B represents a pEC50 value between 6.7 and 7.5 (EC50 between 200 nM and 32 nM))
21 | Cc1cc(Nc2nc(N[C@@H]3C[C@H]4CCC[C@@H](C3)N4C(=O)CN(C)C)c3cccnc3c2F)n[nH]1 [Example 8-15] | B (B represents a pKi value between 9 and 10 (Ki between 1 nM and 0.1 nM)) | – | – | THP-1 IL4 pIC50 [1, 3]: C (C represents a pEC50 value<6.7 (EC50>200 nM))
22 | COC(=O)c1cnc2cc(Nc3cc(C)[nH]n3)nc(N[C@@H]3C[C@H]4CC[C@@H](C3)N4C3CCCOC3=O)c2c1 (stereo partly drawn) [Example 16, Methyl 7-((5-methyl-1H-pyrazol-3-yl)amino)-5-(((1R,3s,5S)-8-(2-oxotetrahydro-2H-pyran-3-yl)-8-azabicyclo[3.2.1]octan-3-yl)amino)-1,6-naphthyridine-3-carboxylate] | – | – | – | Ki (JAK1): 0.1 to 1 nM; IC50 ([1]; Homo sapiens, THP-1, read-out: THP-1 IL4 pIC50 (converted)): 31.6 to 200 nM
